Test results taken from patent US10039729B2, “Use of kukoamine A and kukoamine B” (Tianjin Chase Sun Pharmaceutical Co., Ltd., priority 2010, dated 2018).

Columns and labels:
[1] = test system: RAW264.7 cells; experiment: Cell vitality of RAW264.7 cells (MTT assay); assay type: cell-based, murine; conditions: 24 h; for RAW264.7 cells vitality (OD550): 200 μg/ml, p>0.05
Description: (1) Influence on vitality of RAW264.7 cells: According to embodiment 7, for the purpose of experiment a medium group, KB group (25, 50, 100, 200, 400 and 800 μM), a LPS (100 ng/ml)+KB (0, 100, 200 and 400 μM) group and a CpG DNA (10 μg/ml)+KB (0, 100, 200 and 400 μM) group were established; MTT was dissolved with PBS to make 5 mg/ml solution and filtered, which served as stock solution and stored at −20° C. for further detection; RAW264.7 cells were adjusted to 1×10^6/ml in DMEM medium, added into 96-well plates (200 μl per well), and cultured at 37° C. in a 5% CO2 humidified incubator for 4 h; the specified concentration of LPS, CpG DNA and KB were separately loaded according to the grouping; cells were cultured at 37° C. in a 5% CO2 humidified incubator for 24 h, centrifuged at 1000 rpm/min for 5 min; the supernatant was sucked and discarded; each well was added with 180 μl cell culture medium and 20 μl MTT stock solution, then cultured at 37° C. in a 5% CO2 humidified incubator for 4 h, and centrifuged at 1000 rpm/min for 10 min; then the supernatant was sucked and discarded; each well was added with 150 μl DMSO, and shook for 10 min for the dissolution of the crystals; RAW264.7 cells vitality was expressed as absorbance values at 550 nm of each well, which were instantly assayed by ELIASA.

[2] = test system: mice challenged by heat-killed Escherichia coli; experiment: Protection on mice challenged by lethal dose of heat-killed Escherichia coli; assay type: in vivo, Kunming mice
Description: Preparation of heat-killed Escherichia coli (E. coli) ATCC 35218: Bacteria culture was performed according to Clinical Laboratory Procedures. Single bacterial colony of E. coli from LB agar plates were picked and transferred into 10 mL sterile liquid of LB broth using a sterile inoculating loop, and cultivated at 37° C. in a shaker (250 rpm). After medium become turbid, these culture medium were then transferred to 2000 mL of fresh LB medium and cultivated at 37° C. in a shaker (250 rpm) for 12 h. The suspension was collected, transferred into 1000 ml centrifuge tube, and centrifuged at 5000 rpm for 15 min. The supernatant was discarded. The bacteria were collected, washed and resuspended into sterile saline, and then centrifuged again under the same condition. Above-mentioned process was repeated thrice. The bacteria pellet was resuspended with a pipet in 50 ml sterile saline, transferred into 100 ml saline bottle, and boiled in electric furnace for 30 min. Then the suspension of heat-killed Escherichia coli was obtained. The suspension of E. coli was diluted by 100 fold, and measured OD value at 600 nm on nucleic acid protein analyzer. Conversion was made according to the regression equation of OD value and concentration, and the suspension was diluted according to the conversion result. Then the operating fluids for mice injection were obtained.
Observation of CL-4b protection on mice challenged by heat-killed Escherichia coli: A total of […] Kunming mice (18˜20 g), half male and half female, were divided into three groups randomly: CL-4b control group, heat-killed E. coli group and CL-4b treatment group. Each group has 10 mice, half male and half female. CL-4b control group was injected with CL-4b (60 mg/kg) and sterile saline; heat-killed E. coli group was injected with heat-killed Escherichia coli (1.0×10^10 CFU/ml) and sterile saline; CL-4b treatment group was injected with CL-4 ([…]) at 10 min after heat-killed E. coli injection. The injection volume of each solution was 200 μl per 20 g body weight via tail vein. […]
(1) Single dose experiment: Experiment 1: A total of 40 Kunming mice (18-20 g), half male and half female, were divided into two groups randomly, heat-killed E. coli control group and KB (30 mg/kg) treatment group; each group has 20 mice; after animal weighing, heat-killed E. coli group was injected with heat-killed Escherichia coli (200 μl per 20 g body weight) and sterile saline (200 μl per 20 g body weight); KB treatment group was injected with KB (200 μl per 20 g body weight) at 5 min after heat-killed E. coli was injected; the injection doses of heat-killed E. coli were 1.0×10^11 CFU/kg, and injection doses of KB were 30 mg/kg. […]

[3] = single dose KB 60 mg/kg, E. coli 1.0×10^11 CFU/kg

Compound	RAW264.7 cells vitality (OD550) [1]	absorbance values (vitality of RAW264.7 cells) vs medium group ([1]; KB 25-800 μM, or KB 0-400 μM plus LPS 100 ng/ml or CpG DNA 10 μg/ml)	survival rates, multiple dose ([2]; KB 1.25, 2.5 and 5 mg/kg every 8 h for 3 days)	mortality rate in 7 days, single dose ([2]; KB 15, 30 and 60 mg/kg 5 min after heat-killed E. coli)	protective effect, KB given after 2 h (4, 6 and 8 h) [2, 3]	survival rate, KB given 2 h after heat-killed E. coli [2, 3]
NCCCN(CCCCNCCCNC(=O)CCc1ccc(O)c(O)c1)C(=O)CCc1ccc(O)c(O)c1 [KB, Kukoamine B]	no influence on RAW264.7 cells vitality	no statistic difference on absorbance values	improve survival rates	decreased with the increasing doses of KB	no longer has a significant protective effect	still can increase the survival rate
O=C(CCc1ccc(O)c(O)c1)NCCCNCCCCNCCCNC(=O)CCc1ccc(O)c(O)c1 [KA, Kukoamine A]	no influence on RAW264.7 cells vitality					
